In patent US20080171657A1, “5,6-Dialkyl-7-Aminoazolopyrimidines, Their Preparation and Their Use for Controlling Harmful Fungi, and Compositions Comprising These Compounds” (Basf Aktiengesellschaft, priority 2005, published 2008) one finds Infection in % and melting point data, which are given here for two compounds.

The subject of one series is Puccinia recondita. Description: Protective activity against Puccinia recondita on wheat (brown rust of wheat). It is filed as in vivo. The note with it: comparison to closest prior art; concentration not given; untreated 90. As to the method:
The active compounds were prepared as a stock solution comprising 25 mg of active compound which was made up to 10 ml using a mixture of acetone and/or DMSO and the emulsifier Uniperol® EL (wetting agent having emulsifying and dispersing action based on ethoxylated alkylphenols) in a volume ratio of solvent/emulsifier of 99/1. The mixture was then made up to 100 ml with water. This stock solution was diluted with the solvent/emulsifier/water mixture described to the concentration of active compound stated below. Protective Activity Against Puccinia recondita on Wheat (brown Rust of Wheat) Leaves of potted wheat seedlings of the cultivar “Kanzler” were sprayed to runoff point with an aqueous suspension having the concentration of active compounds stated below. The next day, the treated plants were inoculated with a spore suspension of brown rust of wheat (Puccinia recondite). The plants were then placed in a chamber with high atmospheric humidity (90 to 95%) at 20 to 22° C. for 24 hours. During this time, the spores germinated and the germ tubes penetrated into the leaf tissue. The next day, the test plants were returned to the greenhouse and cultivated at temperatures between 20 and 22° C. and 65 to 70% relative atmospheric humidity for a further 7 days. The extent of the rust fungus development on the leaves was then determined visually.

In general, melting point refers to the temperature, or range, at which the solid turns liquid.

In the series with Puccinia recondita, `CCCCCc1c(CCC)nc2cc(C)nn2c1N` [compound 24, reference compound] displayed an Infection in % of 40%.
Regarding `CCCCCCc1c(CCC)nc2cc(C)nn2c1N` [I-1], the melting point is 132 to 134 °C. For the same compound, the Infection in % in the series on Puccinia recondita is 20%.
